Where two headings read alike, the source gives them in different places.
Assays:
CDK2/Cyclin E1 complex = CDK2/Cyclin E1 complex (Homo sapiens, UniProt P24941); experiment: CDK2 inhibition assay (Caliper/LabChip EZ Reader kinase assay); format: biochemical
Procedure: (§1) Compounds of the invention were assayed for inhibition of CDK7, CDK9, CDK12, and CDK2 activity at Biortus Biosciences (Jiangyin, Jiangsu Province, P.R. of China) using kinase assays for each CDK developed with a Caliper/LabChip EZ Reader (Perkin Elmer, Waltham, MA).
(§2) Furthermore, the CDK9 inhibition assay used CDK9/Cyclin T1 complex (8 nM) and “5-FAM-CDK9tide” peptide substrate (2 μM, synthesized fluorophore-labeled peptide with the following sequence: 5-FAM-GSRTPMY-NH2 where 5-FAM is defined above and NH2 signifies a C-terminal amide) with 10 mM MgCl2 in the buffer composition listed above. […] Additionally, the CDK2 inhibition assay used CDK2/Cyclin E1 complex (0.5 nM) and “5-FAM-CDK7tide” ([…]) as defined above, with 2 mM MgCl2 in the buffer composition listed above.

[1] = biological target: CDK7/Cyclin H/MAT1 complex (Homo sapiens, UniProt P50613); experiment: CDK7 inhibition assay (Caliper/LabChip EZ Reader kinase assay); format: biochemical
Sequence of CDK7/Cyclin H/MAT1 complex (P50613 whole entry, species assumed): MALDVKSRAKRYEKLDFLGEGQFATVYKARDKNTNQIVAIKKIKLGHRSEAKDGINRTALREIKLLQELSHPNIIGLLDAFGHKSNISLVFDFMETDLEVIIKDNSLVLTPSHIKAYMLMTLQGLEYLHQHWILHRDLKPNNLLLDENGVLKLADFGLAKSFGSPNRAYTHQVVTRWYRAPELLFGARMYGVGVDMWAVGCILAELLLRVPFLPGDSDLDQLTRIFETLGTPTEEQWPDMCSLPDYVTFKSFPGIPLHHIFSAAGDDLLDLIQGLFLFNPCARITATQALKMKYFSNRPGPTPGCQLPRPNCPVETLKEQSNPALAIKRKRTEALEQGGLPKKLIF
Sequence of CDK7/Cyclin H/MAT1 complex (P51946 whole entry partner, species assumed): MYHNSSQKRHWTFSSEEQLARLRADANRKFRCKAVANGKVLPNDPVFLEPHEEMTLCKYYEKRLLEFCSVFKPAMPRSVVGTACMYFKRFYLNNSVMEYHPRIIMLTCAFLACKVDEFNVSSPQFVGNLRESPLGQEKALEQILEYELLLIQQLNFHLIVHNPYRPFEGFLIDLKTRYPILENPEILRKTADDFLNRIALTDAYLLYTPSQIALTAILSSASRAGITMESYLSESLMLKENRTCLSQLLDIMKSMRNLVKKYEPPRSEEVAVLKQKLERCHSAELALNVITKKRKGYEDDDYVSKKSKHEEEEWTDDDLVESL
Sequence of CDK7/Cyclin H/MAT1 complex (P51948 whole entry partner, species assumed): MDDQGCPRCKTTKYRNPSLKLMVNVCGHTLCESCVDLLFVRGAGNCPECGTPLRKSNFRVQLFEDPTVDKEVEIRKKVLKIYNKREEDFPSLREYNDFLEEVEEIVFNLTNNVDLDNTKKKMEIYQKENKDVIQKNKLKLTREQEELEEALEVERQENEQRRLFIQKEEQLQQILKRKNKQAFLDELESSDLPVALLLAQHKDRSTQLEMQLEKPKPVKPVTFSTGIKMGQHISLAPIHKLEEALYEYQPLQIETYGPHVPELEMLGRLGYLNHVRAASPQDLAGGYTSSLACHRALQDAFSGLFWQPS
Procedure: as §1, §2

[2] = biological target: T1, CDK12 (aa686-1082)/Cyclin K complex (Homo sapiens, UniProt Q9NYV4); experiment: CDK12 inhibition assay (Caliper/LabChip EZ Reader kinase assay); format: biochemical; details: Table 1; CDK12 (aa686-1082)/Cyclin K 50 nM, ATP 2 mM, 3 hr at 27° C.
T1 construct: CDK12 (aa686-1082)/Cyclin K complex
T1 sequence (Q9NYV4 686-1082, species assumed): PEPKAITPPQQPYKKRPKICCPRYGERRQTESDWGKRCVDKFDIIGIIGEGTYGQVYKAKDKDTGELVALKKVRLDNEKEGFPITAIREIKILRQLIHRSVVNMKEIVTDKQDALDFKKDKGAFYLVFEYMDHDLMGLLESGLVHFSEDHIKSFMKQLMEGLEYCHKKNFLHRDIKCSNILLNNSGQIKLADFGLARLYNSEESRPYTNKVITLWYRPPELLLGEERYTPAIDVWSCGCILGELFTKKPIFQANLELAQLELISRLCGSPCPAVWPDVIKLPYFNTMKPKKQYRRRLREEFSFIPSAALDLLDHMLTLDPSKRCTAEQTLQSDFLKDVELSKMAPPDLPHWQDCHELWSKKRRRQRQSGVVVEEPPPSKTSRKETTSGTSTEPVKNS
T1 sequence (O75909 whole entry partner, species assumed, the tested form may be a part): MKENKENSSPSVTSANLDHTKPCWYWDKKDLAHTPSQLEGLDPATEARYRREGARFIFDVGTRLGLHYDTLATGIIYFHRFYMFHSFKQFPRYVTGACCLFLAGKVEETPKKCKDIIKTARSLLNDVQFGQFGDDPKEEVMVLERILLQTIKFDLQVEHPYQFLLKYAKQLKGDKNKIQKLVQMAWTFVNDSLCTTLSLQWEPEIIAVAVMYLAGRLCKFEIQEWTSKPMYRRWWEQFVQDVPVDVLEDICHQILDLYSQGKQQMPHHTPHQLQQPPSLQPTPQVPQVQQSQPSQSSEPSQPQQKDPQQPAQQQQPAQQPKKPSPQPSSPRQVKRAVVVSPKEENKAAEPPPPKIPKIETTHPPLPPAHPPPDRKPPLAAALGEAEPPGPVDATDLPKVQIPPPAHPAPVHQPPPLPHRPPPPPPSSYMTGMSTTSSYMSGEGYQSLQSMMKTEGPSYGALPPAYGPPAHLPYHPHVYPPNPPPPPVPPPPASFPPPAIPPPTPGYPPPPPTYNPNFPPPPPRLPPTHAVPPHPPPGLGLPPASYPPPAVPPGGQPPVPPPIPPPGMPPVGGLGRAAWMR
Procedure: as §1, §2

A673 cells = experiment: Inhibition of proliferation of A673 cells (CyQUANT, 72 hour); format: cell-based, human
Procedure: A673 cells are a cell line derived from human […] Ewing's sarcoma. Representative compounds of the invention were tested at different concentrations (from […]; 0.5 log serial dilutions) for their ability to inhibit the proliferation of A673 cells. Known CDK inhibitors dinaciclib or N-((1S,3R)-3-((5-chloro-4-(1H-indol-3-yl)pyrimidin-2-yl)amino)cyclohexyl)-5-((E)-4-(dimethylamino)but-2-enamido)picolinamide and triptolide were used as positive controls. Cells were grown in Dulbecco's Modified Eagle's Medium, +10% FBS+1 mM Sodium Pyruvate. The cells were cultured at 37° C. in a humidified chamber in the presence of 5% CO2. Proliferation assays were conducted over a 72 hour time period. CyQUANT® (Life Technologies, Chicago, IL USA) was used to assess the anti-proliferative effects of the compounds following manufacturer's directions and utilizing the reagents supplied with the CyQUANT® kit.

CDK9/Cyclin T1 complex = CDK9/Cyclin T1 complex (Homo sapiens, UniProt P50750); experiment: CDK9 inhibition assay (Caliper/LabChip EZ Reader kinase assay); format: biochemical
Sequence of CDK9/Cyclin T1 complex (P50750 whole entry, species assumed): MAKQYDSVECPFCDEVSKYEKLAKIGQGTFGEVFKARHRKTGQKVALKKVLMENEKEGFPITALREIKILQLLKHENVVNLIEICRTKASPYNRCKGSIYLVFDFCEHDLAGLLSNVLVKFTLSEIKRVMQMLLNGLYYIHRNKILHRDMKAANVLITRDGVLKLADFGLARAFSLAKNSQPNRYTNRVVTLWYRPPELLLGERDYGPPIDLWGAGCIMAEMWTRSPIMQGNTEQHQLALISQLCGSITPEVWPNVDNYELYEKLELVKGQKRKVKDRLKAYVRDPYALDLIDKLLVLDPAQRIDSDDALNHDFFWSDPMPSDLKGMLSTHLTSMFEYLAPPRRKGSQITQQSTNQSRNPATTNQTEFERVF
Sequence of CDK9/Cyclin T1 complex (O60563 whole entry partner, species assumed): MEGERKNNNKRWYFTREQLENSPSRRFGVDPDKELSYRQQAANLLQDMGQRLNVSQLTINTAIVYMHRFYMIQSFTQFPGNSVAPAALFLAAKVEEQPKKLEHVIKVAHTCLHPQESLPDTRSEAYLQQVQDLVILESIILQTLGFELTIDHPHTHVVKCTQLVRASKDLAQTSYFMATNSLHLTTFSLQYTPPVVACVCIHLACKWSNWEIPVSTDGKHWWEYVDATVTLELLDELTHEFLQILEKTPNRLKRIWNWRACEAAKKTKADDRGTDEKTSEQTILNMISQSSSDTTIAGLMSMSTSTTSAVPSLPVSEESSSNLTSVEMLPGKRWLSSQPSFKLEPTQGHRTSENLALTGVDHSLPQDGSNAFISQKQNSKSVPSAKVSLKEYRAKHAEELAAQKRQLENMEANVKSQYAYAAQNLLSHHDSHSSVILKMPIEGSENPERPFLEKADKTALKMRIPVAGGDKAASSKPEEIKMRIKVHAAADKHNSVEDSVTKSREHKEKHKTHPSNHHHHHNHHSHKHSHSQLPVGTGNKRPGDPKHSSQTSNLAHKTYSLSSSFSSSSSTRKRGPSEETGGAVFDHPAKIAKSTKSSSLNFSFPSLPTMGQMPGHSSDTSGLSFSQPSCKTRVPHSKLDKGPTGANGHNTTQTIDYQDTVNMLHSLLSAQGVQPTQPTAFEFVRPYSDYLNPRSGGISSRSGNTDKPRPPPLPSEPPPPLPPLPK
Procedure: as §1, §2

[3] = Table 1, CDK2/Cyclin E1 0.5 nM, ATP 2 mM, 35 min at 27° C.
[4] = Table 1, CDK7/Cyclin H/MAT1 6 nM, ATP 2 mM, 35 min at 27° C.
[5] = A673 cells, 72 hour, CyQUANT, read-out: Inhibition of Proliferation of A673 Cells (calculated IC50)
[6] = Table 1, CDK9/Cyclin T1 8 nM, ATP 2 mM, 15 min at 27° C.
[7] = Homo sapiens, A673, 72 h, A673 cells, 72 hour, CyQUANT, read-out: Inhibition of Proliferation of A673 Cells (calculated IC50)
[8] = Table 3, comparison with structural analogs
[9] = Homo sapiens, A673, 72 h, Table 3, comparison with structural analogs, 72 hour proliferation, read-out: A673 Cells

| IC50 (CDK2/Cyclin E1 complex; [3]) | IC50 [1, 4] | IC50 [2] | IC50 (CDK9/Cyclin T1 complex; [6]) | IC50 (CDK2/Cyclin E1 complex; [8]) | IC50 [1, 8] | IC50 (CDK9/Cyclin T1 complex; [8]) | Compound | IC50 (A673 cells; [5]) | IC50 (A673 cells; [7]) | IC50 (A673 cells; [9]) |
| --- | --- | --- | --- | --- | --- | --- | --- | --- | --- | --- |
| 200 to 5000 nM | 20 to 200 nM | > 5000 nM | > 5000 nM | – | – | – | CNC(=O)C1CNCC(Nc2ncc(C(F)(F)F)c(-c3c[nH]c4ccccc34)n2)C1 (single isomer, unassigned) [Compound 252] | 200 to 5000 nM | – | – |
| 200 to 5000 nM | 200 to 5000 nM | 200 to 5000 nM | 200 to 5000 nM | – | – | – | CS(=O)(=O)c1cccn2c([C@H]3CCC[C@@H](Nc4ncc(C(F)(F)F)c(-c5c[nH]c6ccccc56)n4)C3)nnc12 [Compound 265, 4-(1H-indol-3-yl)-N-[(1R,3S)-3-(8-methylsulfonyl-[1,2,4]triazolo [4,3-a]pyridin-3-yl)cyclohexyl]-5-(trifluoromethyl) pyrimidin-2-amin] | – | 20 to 200 nM | – |
| 200 to 5000 nM | < 20 nM | 200 to 5000 nM | 200 to 5000 nM | – | – | – | CN1CCC[C@H](Nc2ncc(Cl)c(-c3c[nH]c4ccccc34)n2)C1 [Compound 136] | – | 20 to 200 nM | – |
| 200 to 5000 nM | < 20 nM | 200 to 5000 nM | 200 to 5000 nM | – | – | – | Cn1cc(-c2ccc3c(-c4nc(N[C@H]5CCCNC5)ncc4C(F)(F)F)c[nH]c3c2)cc1C#N [Compound 225, 1-methyl-4-[3-[2-[[(3S)-3-piperidyl]amino]-5-(trifluoromethyl)pyrimidin-4-yl]-1H-indol-6-yl] pyrrole-2-carbonitrile] | – | 20 to 200 nM | – |
| > 5000 nM | 200 to 5000 nM | > 5000 nM | > 5000 nM | – | – | – | CC1(C)CCNC[C@H]1Nc1ncc(C(F)(F)F)c(-c2c[nH]c3ccccc23)n1 (single isomer, unassigned) [Compound 210] | – | 200 to 5000 nM | – |
| 200 to 5000 nM | < 20 nM | 200 to 5000 nM | 200 to 5000 nM | – | – | – | C#Cc1cnc(N[C@H]2CCCNC2)nc1-c1c[nH]c2ccccc12 [Compound 194] | – | < 20 nM | – |
| > 5000 nM | 20 to 200 nM | 200 to 5000 nM | > 5000 nM | – | – | – | CC(=O)c1cnc(N[C@H]2CCCNC2)nc1-c1c[nH]c2ccccc12 [Compound 208] | – | 20 to 200 nM | – |
| 200 to 5000 nM | 20 to 200 nM | 200 to 5000 nM | 200 to 5000 nM | – | – | – | CC1(O)CCC(c2cccc3c(-c4nc(N[C@H]5CCCNC5)ncc4C(F)(F)F)c[nH]c23)CC1 (single isomer, unassigned) [Compound 193] | – | – | – |
| > 5000 nM | 200 to 5000 nM | > 5000 nM | > 5000 nM | – | – | – | CCC(=O)N[C@H]1CNC[C@@H](Nc2ncc(C(F)(F)F)c(-c3c[nH]c4c(S(C)(=O)=O)cccc34)n2)C1 [Compound 254, N-[(3R,5S)-5-[[4-(7-methylsulfonyl-1H-indol-3-yl)-5-(trifluoromethyl)pyrimidin-2-yl]amino]-3-piperidyl]propanamide] | – | – | – |
| > 5000 nM | 200 to 5000 nM | > 5000 nM | > 5000 nM | – | – | – | CC(O)c1cnc(NC2CCCNC2)nc1-c1c[nH]c2ccccc12 (single isomer, unassigned) [Compound 238] | – | 200 to 5000 nM | – |
| 200 to 5000 nM | < 20 nM | 200 to 5000 nM | 200 to 5000 nM | – | – | – | N#Cc1cnc(N[C@H]2CCCNC2)nc1-c1c[nH]c2ccccc12 [Compound 157] | – | < 20 nM | – |
| 200 to 5000 nM | < 20 nM | 200 to 5000 nM | 200 to 5000 nM | – | – | – | N#Cc1ccc2c(-c3nc(N[C@H]4CCCNC4)ncc3C(F)(F)F)c[nH]c2c1C#N [Compound 258, 3-[2-[[(3S)-3-piperidyl]amino]-5-(trifluoromethyl)pyrimidin-4-yl]-1H-indole-6,7-dicarbonitrile] | – | 20 to 200 nM | – |
| 200 to 5000 nM | 200 to 5000 nM | > 5000 nM | > 5000 nM | – | – | – | FC(F)(F)c1cnc(NC2CNCc3ccccc32)nc1-c1c[nH]c2ccccc12 (stereo not shown) [Compound 216] | 200 to 5000 nM | – | – |
| > 5000 nM | 20 to 200 nM | > 5000 nM | > 5000 nM | – | – | – | CCc1cnc(N[C@H]2CCCNC2)nc1-c1c[nH]c2c(S(=O)(=O)O)cccc12 [Compound 362, 3-[5-ethyl-2-[[(3S)-3-piperidyl]amino]pyrimidin-4-yl]-1H-indole-7-sulfonic acid] | – | – | – |
| 200 to 5000 nM | 20 to 200 nM | 200 to 5000 nM | > 5000 nM | – | – | – | O=C(C1CCC(Nc2ncc(C(F)(F)F)c(-c3c[nH]c4ccccc34)n2)CN1)N1CCC(O)C1 (mixture of isomers) [Compound 244] | – | 200 to 5000 nM | – |
| – | – | – | – | 200 to 5000 nM | < 20 nM | 200 to 5000 nM | FC(F)(F)c1cnc(N[C@H]2CCCNC2)nc1-c1n[nH]c2ccccc12 [drawing 562] | – | – | < 20 nM |
| > 5000 nM | < 20 nM | 200 to 5000 nM | > 5000 nM | – | – | – | C[C@]1(O)CCN(C(=O)c2ccc3c(-c4nc(N[C@H]5CCCNC5)ncc4C(F)(F)F)c[nH]c3c2)C1 [Compound 220, [(3S)-3-hydroxy-3-methyl-pyrrolidin-1-yl]-[3-[2-[[(3S)-3-piperidyl]amino]-5-(trifluoromethyl)pyrimidin-4-yl]-1Hindol-6-yl]methanone] | – | – | – |
| – | 20 to 200 nM | 200 to 5000 nM | 200 to 5000 nM | – | – | – | Cn1cc(-c2cccc3c(-c4nc(N[C@H]5CCCNC5)ncc4C(F)(F)F)c[nH]c23)cn1 [Compound 164] | – | < 20 nM | – |
| – | 20 to 200 nM | 200 to 5000 nM | 200 to 5000 nM | – | – | – | FC(F)(F)c1cnc(N[C@H]2CCCNC2)nc1-c1c[nH]c2c(Br)cccc12 [Compound 163] | – | 20 to 200 nM | – |
| > 5000 nM | – | – | > 5000 nM | – | – | – | FC(F)(F)c1cnc(N[C@H]2CCCNC2)nc1-c1c[nH]c2cc(N3CCCC3)ccc12 [Compound 213, N-[(3S)-3-piperidyl]-4-(6-pyrrolidin-1-yl-1H-indol-3-yl)-5-(trifluoromethyl) pyrimidin-2-amine] | – | 20 to 200 nM | – |
| > 5000 nM | 20 to 200 nM | > 5000 nM | > 5000 nM | – | – | – | CCc1cnc(N[C@H]2CCCNC2)nc1-c1c[nH]c2c(S(=O)O)cccc12 [Compound 363, 3-[5-ethyl-2-[[(3S)-3-piperidyl]amino]pyrimidin-4-yl]-1H-indole-7-sulfinic acid] | – | – | – |
| 200 to 5000 nM | < 20 nM | 200 to 5000 nM | 200 to 5000 nM | – | – | – | FC(F)(F)c1cnc(N[C@H]2CCCNC2)nc1-c1c[nH]c2cc(-n3ccnc3)ccc12 [Compound 248, 4-(6-imidazol-1-yl-1H-indol-3-yl)-N-[(3S)-3-piperidyl]-5-(trifluoromethyl) pyrimidin-2-amine] | – | – | – |
| 200 to 5000 nM | 20 to 200 nM | 200 to 5000 nM | 200 to 5000 nM | – | – | – | CC1(O)CCC(c2cccc3c(-c4nc(N[C@H]5CCCNC5)ncc4C(F)(F)F)c[nH]c23)CC1 (single isomer, unassigned) [Compound 192] | – | – | – |
| – | – | – | – | 200 to 5000 nM | 200 to 5000 nM | 200 to 5000 nM | C[C@]1(N)CC[C@@H](Nc2ncc(C(F)(F)F)c(-c3n[nH]c4ccccc34)n2)CC1 [reference compound] | – | – | 20 to 200 nM |
| 200 to 5000 nM | < 20 nM | 200 to 5000 nM | 200 to 5000 nM | – | – | – | CCc1cnc(N[C@H]2CCCNC2)nc1-c1c[nH]c2ncc(F)cc12 [Compound 270, (S)-5-ethyl-4-(5-fluoro-1H-pyrrolo[2,3-b]pyridin-3-yl)-N-(piperidin-3-yl)pyrimidin-2-amine] | – | – | – |
| – | 20 to 200 nM | 200 to 5000 nM | 200 to 5000 nM | – | – | – | FC(F)(F)c1cnc(N[C@H]2CCCNC2)nc1-c1c[nH]c2c(-c3ccncc3)cccc12 [Compound 162] | – | < 20 nM | – |
| – | – | – | – | 200 to 5000 nM | 200 to 5000 nM | > 5000 nM | C[C@]1(N)CC[C@@H](Nc2ncc(C(F)(F)F)c(-c3c[nH]c4ccccc34)n2)CC1 [reference compound] | – | – | 20 to 200 nM |
| – | – | – | – | 200 to 5000 nM | < 20 nM | 20 to 200 nM | FC(F)(F)c1cnc(N[C@H]2CCCNC2)nc1-c1c[nH]c2ccccc12 | – | – | < 20 nM |
| 200 to 5000 nM | 20 to 200 nM | 200 to 5000 nM | 200 to 5000 nM | – | – | – | FC(F)(F)c1cnc(N[C@H]2CCC3(CCCCC3)NC2)nc1-c1c[nH]c2ccccc12 [Compound 240] | – | – | – |
